Assay results: PMC5286435, “Honeybee locomotion is impaired by Am-CaV3 low voltage-activated Ca^2+ channel antagonist” (Scientific Reports, 2017)
pEC50: −log10 of the molar value.

Tests used:
Am-CaV3 [1] = biological target: T1, Am-CaV3 (Apis mellifera, UniProt A0ACM8RFK5); assay: two-electrode voltage clamp in Xenopus oocytes, Ba2+ current block; type: cell-based
T1 construct: gene LOC551883; full channel alpha1 subunit cloned from honeybee, mRNA injected in Xenopus oocytes, without CaVbeta; N-terminal region peptide CFDVPSSDGPSDPS (antibody antigen)

Am-CaV3 [2] = biological target: T1, Am-CaV3; assay: as above; type: cell-based; settings: inhibition (blocker), 10 mM Ba2+, reversible, code printed NNC55-0398 in text, NNC 55-0396 in Figure 1 legend

T1 sequence (A0ACM8RFK5 1-2566): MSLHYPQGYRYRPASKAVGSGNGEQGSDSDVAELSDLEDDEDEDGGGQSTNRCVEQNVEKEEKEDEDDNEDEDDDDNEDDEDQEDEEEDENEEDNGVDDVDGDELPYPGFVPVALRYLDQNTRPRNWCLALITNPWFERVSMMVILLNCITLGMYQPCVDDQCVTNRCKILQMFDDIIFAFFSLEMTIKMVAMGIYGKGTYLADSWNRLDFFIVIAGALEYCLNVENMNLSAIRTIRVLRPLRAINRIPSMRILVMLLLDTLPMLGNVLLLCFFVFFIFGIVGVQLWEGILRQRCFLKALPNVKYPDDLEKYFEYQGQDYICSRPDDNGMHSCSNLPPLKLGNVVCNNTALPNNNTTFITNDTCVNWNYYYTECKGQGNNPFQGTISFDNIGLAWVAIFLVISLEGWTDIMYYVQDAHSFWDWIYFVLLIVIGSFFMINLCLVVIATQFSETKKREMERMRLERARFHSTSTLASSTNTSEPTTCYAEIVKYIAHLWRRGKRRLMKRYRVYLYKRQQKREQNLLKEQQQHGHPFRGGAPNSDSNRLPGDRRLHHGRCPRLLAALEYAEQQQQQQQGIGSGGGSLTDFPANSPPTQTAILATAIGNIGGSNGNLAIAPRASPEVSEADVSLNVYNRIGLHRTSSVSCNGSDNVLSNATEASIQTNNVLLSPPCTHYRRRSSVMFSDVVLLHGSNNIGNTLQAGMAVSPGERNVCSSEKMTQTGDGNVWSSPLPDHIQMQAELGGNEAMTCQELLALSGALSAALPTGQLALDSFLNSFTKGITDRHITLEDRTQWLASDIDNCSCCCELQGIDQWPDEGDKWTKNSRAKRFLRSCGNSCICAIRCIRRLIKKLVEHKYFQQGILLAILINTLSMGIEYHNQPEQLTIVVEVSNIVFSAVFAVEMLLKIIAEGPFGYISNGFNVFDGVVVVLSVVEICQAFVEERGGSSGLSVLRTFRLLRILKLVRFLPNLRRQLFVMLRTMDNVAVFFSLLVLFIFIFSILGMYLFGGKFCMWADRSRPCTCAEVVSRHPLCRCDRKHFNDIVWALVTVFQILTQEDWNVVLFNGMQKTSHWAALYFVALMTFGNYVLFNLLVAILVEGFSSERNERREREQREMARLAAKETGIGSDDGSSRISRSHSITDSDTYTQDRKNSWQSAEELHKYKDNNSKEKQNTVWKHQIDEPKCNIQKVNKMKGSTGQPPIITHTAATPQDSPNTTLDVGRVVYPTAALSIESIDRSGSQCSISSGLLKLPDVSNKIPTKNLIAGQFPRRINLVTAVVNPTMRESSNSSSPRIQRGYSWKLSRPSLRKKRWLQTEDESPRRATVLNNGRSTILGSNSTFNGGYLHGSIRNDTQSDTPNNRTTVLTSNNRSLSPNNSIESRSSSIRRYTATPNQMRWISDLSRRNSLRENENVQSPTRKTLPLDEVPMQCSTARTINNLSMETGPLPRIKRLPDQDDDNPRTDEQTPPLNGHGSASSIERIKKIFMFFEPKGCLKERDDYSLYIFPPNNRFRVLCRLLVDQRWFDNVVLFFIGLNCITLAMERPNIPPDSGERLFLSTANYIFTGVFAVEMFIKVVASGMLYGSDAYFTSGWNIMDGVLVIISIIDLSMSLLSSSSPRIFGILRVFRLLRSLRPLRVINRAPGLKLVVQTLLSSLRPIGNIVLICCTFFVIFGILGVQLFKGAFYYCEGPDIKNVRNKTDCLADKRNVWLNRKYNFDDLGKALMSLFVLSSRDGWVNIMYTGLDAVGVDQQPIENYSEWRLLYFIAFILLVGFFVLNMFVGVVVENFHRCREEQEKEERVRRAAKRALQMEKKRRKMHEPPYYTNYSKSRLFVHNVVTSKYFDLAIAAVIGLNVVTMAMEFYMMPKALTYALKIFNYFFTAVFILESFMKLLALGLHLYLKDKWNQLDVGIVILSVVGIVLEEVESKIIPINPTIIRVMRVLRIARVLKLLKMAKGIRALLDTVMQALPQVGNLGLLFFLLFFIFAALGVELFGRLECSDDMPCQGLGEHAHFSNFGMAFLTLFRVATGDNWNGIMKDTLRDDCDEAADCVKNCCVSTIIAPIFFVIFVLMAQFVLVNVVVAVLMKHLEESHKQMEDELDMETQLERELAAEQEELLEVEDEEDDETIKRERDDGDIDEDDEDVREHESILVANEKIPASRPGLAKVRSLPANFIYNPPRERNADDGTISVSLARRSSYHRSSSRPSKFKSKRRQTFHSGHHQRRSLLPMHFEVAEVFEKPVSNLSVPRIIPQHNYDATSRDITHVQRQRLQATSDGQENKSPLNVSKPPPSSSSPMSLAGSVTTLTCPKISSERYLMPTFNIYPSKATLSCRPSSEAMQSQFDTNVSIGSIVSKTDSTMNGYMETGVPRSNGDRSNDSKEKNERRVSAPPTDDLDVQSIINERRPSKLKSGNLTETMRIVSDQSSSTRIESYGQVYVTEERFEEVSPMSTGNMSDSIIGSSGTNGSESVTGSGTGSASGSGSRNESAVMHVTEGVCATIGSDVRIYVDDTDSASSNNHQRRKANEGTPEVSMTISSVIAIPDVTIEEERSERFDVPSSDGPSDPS

pEC50 (Am-CaV3 [1])	SMILES	residual current at 10 μM (Am-CaV3 [2])
5.46	COCC(=O)O[C@]1(CCN(C)CCCc2nc3ccccc3[nH]2)CCc2cc(F)ccc2[C@@H]1C(C)C [Mi, mibefradil]	
	CC(C)[C@H]1c2ccc(F)cc2CC[C@@]1(CCN(C)CCCc1nc2ccccc2[nH]1)OC(=O)C1CC1 [NN, NNC 55-0396]	The mibefradil analogue NNC55-0398 (NN) also had a similar potency
